Results taken from patent US20230286973A1, “PROTEIN SECRETION INHIBITORS” (KEZAR LIFE SCIENCES, priority 2020, published 2023).

How the values were obtained:
[1] = system: PD1-ss+10aa/Gaussia Luciferase; assay: Dox-Induced PD1-ss-Gluc Assay; format: cell-based; conditions: 24 hr Dox induction; 293FRT/TO cells; read-out: 24 hr Dox Inducible PD1ssGluc 293FRT/TO: Mean IC50
Method in brief: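 Doxycycline-induced expression of a PD1-ss+10aa/Gaussia luciferase reporter is measured in stable Flp-In 293 T-REx cells. Compound dilutions containing doxycycline are added one day after plating and incubated at 37 °C, 5% CO2. Values for unassigned stereocentres refer to stereoisomer mixtures.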

[2] = system: TNFα-FL/Gaussia Luciferase; assay: Dox Induced TNFα-FL-Gluc Assay; format: cell-based; conditions: for IC50: 24 hr Dox induction, 293FRT/TO cells, read-out: 24 hr Dox Inducible TNFaFLGluc 293FRT/TO: Mean IC50; for 24 hr Dox Inducible TNFaFLGluc 293FRT/TO: TNF/PD1: ratio of TNFaFLGluc IC50 to PD1ssGluc IC50
Method in brief: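 Stereoisomer mixtures were tested where stereochemistry is not drawn. Induction used doxycycline added together with compound dilutions in DMSO/media to Flp-In 293 T-REx cells carrying a T-REx-regulated TNFα (aa 1-233)-Gaussia luciferase construct, then incubated at 37 °C, 5% CO2.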

[3] = system: HER3-ss+4aa/Gaussia Luciferase; assay: Dox-Induced Her3-ss-Gluc Assay; format: cell-based; conditions: 24 hr Dox induction; 293FRT/TO cells; read-out: 24 hr Dox Inducible Her3(ss + 4)Gluc 293FRT/TO: Mean IC50
Method in brief: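 Cells were seeded a day ahead, then given compound diluted in DMSO/media with doxycycline to induce expression of the HER3 signal sequence (+4 aa)–Gaussia luciferase fusion. Incubation was at 37° C., 5% CO2, in a stable Flp-In 293 T-REx line.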

[4] = system: IL-2-FL/Gaussia Luciferase; assay: Dox Induced IL2-FL-Gluc Assay; format: cell-based; conditions: for IC50: 24 hr Dox induction, 293FRT/TO cells, read-out: 24 hr Dox Inducible IL2FLGluc 293FRT/TO: Mean IC50; for 24 hr Dox Inducible IL2FLGluc 293FRT/TO: IL2/PD1: ratio of IL2FLGluc IC50 to PD1ssGluc IC50
Method in brief: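 Cells are plated one day ahead, then receive compound dilutions in DMSO/media with doxycycline and incubate at 37° C, 5% CO2. They are Flp-In 293 T-REx cells expressing a full-length IL-2 (amino acids 1-153)–Gaussia luciferase fusion under T-REx control.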

[5] = system: multiple myeloma cell line NCI-H929; assay: H929 Cell Viability Assay; format: cell-based, human; conditions: Homo sapiens, NCI-H929, 48 h, NCI-H929 cells, Celltiter-Glo
Method in brief: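 Luminescent ATP detection (CellTiter-Glo) after 48 hours of compound exposure measures viability. Cells were plated in RPMI 1640 containing 10% fetal bovine serum and kept at 37° C under 5% CO2.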

[6] = system: multiple myeloma cell line U266B1; assay: U266 Cell Viability Assay; format: cell-based, human; conditions: Homo sapiens, U-266, 48 h, U266B1 cells, Celltiter-Glo
Method in brief: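 Steps: culture in RPMI 1640 plus 10% FBS and 2 mM glutamine; plate and add compound dilutions; incubate 48 hours at 37° C., 5% CO2; add CellTiter-Glo and quantify luciferase signal.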

[7] = Liver Microsome Stability Assay (rat); conditions: rat liver microsomes, with NADPH, 1.0 uM compound
Experimental: (§1) Stability of a compound was assessed in the presence of liver microsomes from various sources—mouse, rat, monkey and human liver microsomes. 1.0 uM compound, 0.4% DMSO in 0.1 M Potassium Phosphate with 1.0 mg/mL liver microsomes, were incubated at 37° C. with or without 1 mM NADPH. The samples were quenched at 0, and 30 minutes.

[8] = Liver Microsome Stability Assay (mouse); conditions: mouse liver microsomes, with NADPH, 1.0 uM compound
Experimental: as §1

[9] = Liver Microsome Stability Assay (human); conditions: human liver microsomes, with NADPH, 1.0 uM compound
Experimental: as §1

[10] = Liver Microsome Stability Assay (monkey); conditions: monkey liver microsomes, with NADPH, 1.0 uM compound
Experimental: as §1

Row | Compound | IC50 [1] [nM] | IC50 [2] [nM] | 24 hr Dox Inducible TNFaFLGluc 293FRT/TO: TNF/PD1 [2] | IC50 [3] [nM] | IC50 [4] [nM] | 24 hr Dox Inducible IL2FLGluc 293FRT/TO: IL2/PD1 [4] | EC50 [5] [nM] | EC50 [6] [nM] | Liver Microsome Stability (Multiple Species): Rat - % Remaining after 30 min w/NADPH [7] [%] | Liver Microsome Stability (Multiple Species): Mouse - % Remaining after 30 min w/NADPH [8] [%] | Liver Microsome Stability (Multiple Species): Human - % Remaining after 30 min w/NADPH [9] [%] | Liver Microsome Stability (Multiple Species): Monkey - % Remaining after 30 min w/NADPH [10] [%]
1 | CC(=O)N1CCC(Oc2ccc(N3CCC[C@@H]3c3csc(NC(=O)c4cccn4Cc4ccnc(F)c4)n3)cc2F)CC1 [Compound A102, (R)-N-(4-(1-(4-((1-acetylpiperidin-4-yl)oxy)-3-fluorophenyl)pyrrolidin-2-yl)thiazol-2-yl)-1-((2-fluoropyridin-4-yl)methyl)-1H-pyrrole-2-carboxamide] | 15 | 121 | 8.11 | 16.9 | 27.5 | 1.8 | 317 | > 25000 | 19.7 | 7.68 | 8.26 | 1.22
2 | CNCCOc1ccc(N2CCC[C@@H]2c2csc(NC(=O)c3cccn3Cc3ccnc(F)c3)n2)cc1 [Compound A103, (R)-1-((2-fluoropyridin-4-yl)methyl)-N-(4-(1-(4-(2-(methylamino)ethoxy)phenyl)pyrrolidin-2-yl)thiazol-2-yl)-1H-pyrrole-2-carboxamide] | 296 | 8640 | 29.2 | 670 | 843 | 2.9 | 4040 | 5660 | 28.3 | 55 | 67 | 47.2
3 | CN(C)CCOc1ccc(N2CCC[C@@H]2c2csc(NC(=O)c3cccn3Cc3ccnc(F)c3)n2)cc1 [Compound A104, (R)-N-(4-(1-(4-(2-(dimethylamino)ethoxy)phenyl)pyrrolidin-2-yl)thiazol-2-yl)-1-((2-fluoropyridin-4-yl)methyl)-1H-pyrrole-2-carboxamide] | 153 | 4030 | 26.3 | 355 | 435 | 2.8 | 3170 | 5760 | 27.9 | 16.5 | 68.8 | 51.6
4 | CC(=O)N1CCC(Oc2cc(F)c(N3CCC[C@@H]3c3csc(NC(=O)c4cccn4Cc4ccnc(F)c4)n3)c(F)c2)CC1 [Compound A105, (R)-N-(4-(1-(4-((1-acetylpiperidin-4-yl)oxy)-2,6-difluorophenyl)pyrrolidin-2-yl)thiazol-2-yl)-1-((2-fluoropyridin-4-yl)methyl)-1H-pyrrole-2-carboxamide] | 53.6 | 524 | 9.81 | 91.7 | 65.8 | 1.2 | 1030 | > 25000 | 16.9 | 1.29 | 0.87 | 0.98
